Experiments:
Experiment in all cases: biochemical
PLK3 = PLK3 (Homo sapiens, UniProt Q9H4B4); details: read-out: % Inhibition (at 10mM)
PRKAA1_B2_G3 = target: T1, PRKAA1_B2_G3 (Homo sapiens, UniProt Q13131); details: read-out: % Inhibition (at 10mM)
T1 construct: gene PRKAA1

Abl = target: T2, Abl (Homo sapiens, UniProt P00519); details: read-out: % Inhibition (at 10mM)
T2 construct: gene ABL1

Hyl = target: T3, Hyl (Homo sapiens, UniProt P42679); details: read-out: % Inhibition (at 10mM)
T3 construct: gene MATK

mTOR = mTOR (Homo sapiens, UniProt P42345)
BTK = BTK (Homo sapiens, UniProt Q06187); details: read-out: % Inhibition (at 10mM)
BTK, sequence (Q06187 whole entry): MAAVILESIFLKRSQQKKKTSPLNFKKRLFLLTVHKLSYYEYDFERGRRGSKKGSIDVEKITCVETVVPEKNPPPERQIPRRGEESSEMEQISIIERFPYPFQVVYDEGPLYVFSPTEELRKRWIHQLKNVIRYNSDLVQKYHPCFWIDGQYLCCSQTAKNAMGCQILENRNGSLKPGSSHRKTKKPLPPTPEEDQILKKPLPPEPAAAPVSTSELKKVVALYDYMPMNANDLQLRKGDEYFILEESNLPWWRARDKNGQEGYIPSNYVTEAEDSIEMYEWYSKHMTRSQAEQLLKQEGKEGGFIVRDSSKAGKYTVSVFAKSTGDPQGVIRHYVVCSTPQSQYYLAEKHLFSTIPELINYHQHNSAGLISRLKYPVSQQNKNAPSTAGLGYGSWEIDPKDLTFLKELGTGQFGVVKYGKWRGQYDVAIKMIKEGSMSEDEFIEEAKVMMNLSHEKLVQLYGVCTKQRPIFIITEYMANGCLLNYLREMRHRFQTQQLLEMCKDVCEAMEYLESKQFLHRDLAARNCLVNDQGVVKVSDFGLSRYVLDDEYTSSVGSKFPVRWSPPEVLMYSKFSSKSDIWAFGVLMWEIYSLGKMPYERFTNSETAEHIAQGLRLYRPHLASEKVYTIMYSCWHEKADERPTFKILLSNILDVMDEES

PAK6 = PAK6 (Homo sapiens, UniProt Q9NQU5); details: read-out: % Inhibition (at 10mM)
CaMKI_delta = target: T4, CaMKI_delta (Homo sapiens, UniProt Q8IU85); details: read-out: % Inhibition (at 10mM)
T4 construct: gene CAMK1D
T4 sequence (Q8IU85 whole entry): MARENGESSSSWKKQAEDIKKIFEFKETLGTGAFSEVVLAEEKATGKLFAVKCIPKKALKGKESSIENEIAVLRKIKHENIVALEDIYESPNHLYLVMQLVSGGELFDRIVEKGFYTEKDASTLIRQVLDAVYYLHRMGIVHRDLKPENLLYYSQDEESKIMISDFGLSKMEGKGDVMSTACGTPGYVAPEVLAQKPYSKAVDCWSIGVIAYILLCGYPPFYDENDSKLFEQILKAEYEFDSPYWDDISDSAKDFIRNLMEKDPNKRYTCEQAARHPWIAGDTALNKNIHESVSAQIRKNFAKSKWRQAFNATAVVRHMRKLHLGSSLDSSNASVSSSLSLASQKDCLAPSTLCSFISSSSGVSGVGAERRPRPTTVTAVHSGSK

CHK1 = target: T5, CHK1 (Homo sapiens, UniProt O14757); details: read-out: % Inhibition (at 10mM)
T5 construct: gene CHEK1

Brk = target: T6, Brk (Homo sapiens, UniProt Q13882); details: read-out: % Inhibition (at 10mM)
T6 construct: gene PTK6
T6 sequence (Q13882 whole entry): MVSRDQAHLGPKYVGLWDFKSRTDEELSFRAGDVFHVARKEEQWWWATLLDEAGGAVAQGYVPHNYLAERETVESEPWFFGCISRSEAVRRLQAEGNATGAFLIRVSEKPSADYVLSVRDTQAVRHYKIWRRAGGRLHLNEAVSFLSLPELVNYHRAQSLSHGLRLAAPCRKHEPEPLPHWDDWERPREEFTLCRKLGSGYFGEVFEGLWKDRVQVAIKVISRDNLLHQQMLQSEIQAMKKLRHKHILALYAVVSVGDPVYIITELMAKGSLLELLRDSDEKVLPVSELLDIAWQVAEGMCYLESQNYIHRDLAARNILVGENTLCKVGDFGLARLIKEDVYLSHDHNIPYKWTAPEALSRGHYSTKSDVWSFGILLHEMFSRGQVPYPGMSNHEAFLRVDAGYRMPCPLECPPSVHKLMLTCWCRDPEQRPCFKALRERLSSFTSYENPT

PDGFR_beta = target: T7, PDGFR_beta (Homo sapiens, UniProt P09619); details: read-out: % Inhibition (at 10mM)
T7 construct: gene PDGFRB

Mink1 = Mink1 (Homo sapiens, UniProt Q8N4C8); details: read-out: % Inhibition (at 10mM)
Fyn = Fyn (Homo sapiens, UniProt P06241); details: read-out: % Inhibition (at 10mM)
HIPK3 = HIPK3 (Homo sapiens, UniProt Q9H422); details: read-out: % Inhibition (at 10mM)
FGFR2 = FGFR2 (Homo sapiens, UniProt P21802); details: read-out: % Inhibition (at 10mM)
FAK2 = target: T8, FAK2 (Homo sapiens, UniProt Q14289); details: read-out: % Inhibition (at 10mM)
T8 construct: gene PTK2B

RSK1 = target: T9, RSK1 (Homo sapiens, UniProt Q15418); details: read-out: % Inhibition (at 10mM)
T9 construct: gene RPS6KA1

p38_beta = target: T10, p38_beta (Homo sapiens, UniProt Q15759); details: read-out: % Inhibition (at 10mM)
T10 construct: gene MAPK11

p38_gamma = target: T11, p38_gamma (Homo sapiens, UniProt P53778); details: read-out: % Inhibition (at 10mM)
T11 construct: gene MAPK12

CDK2/cyclinA = CDK2/cyclinA (Homo sapiens, UniProt P24941); details: read-out: % Inhibition (at 10mM)
CK1_gamma3 = target: T12, CK1_gamma3 (Homo sapiens, UniProt Q9Y6M4); details: read-out: % Inhibition (at 10mM)
T12 construct: gene CSNK1G3
T12 sequence (Q9Y6M4 whole entry): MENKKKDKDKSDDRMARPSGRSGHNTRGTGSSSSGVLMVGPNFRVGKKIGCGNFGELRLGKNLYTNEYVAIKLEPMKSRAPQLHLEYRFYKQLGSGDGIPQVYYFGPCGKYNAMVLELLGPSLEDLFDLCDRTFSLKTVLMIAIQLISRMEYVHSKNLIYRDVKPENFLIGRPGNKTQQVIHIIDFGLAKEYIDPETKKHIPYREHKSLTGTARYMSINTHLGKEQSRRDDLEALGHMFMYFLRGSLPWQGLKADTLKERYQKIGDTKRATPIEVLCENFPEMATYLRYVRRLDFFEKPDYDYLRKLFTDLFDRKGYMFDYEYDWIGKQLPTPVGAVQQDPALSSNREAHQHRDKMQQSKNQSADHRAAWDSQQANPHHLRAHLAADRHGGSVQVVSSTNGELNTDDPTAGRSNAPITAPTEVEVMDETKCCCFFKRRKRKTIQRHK

SGK1 = SGK1 (Homo sapiens, UniProt O00141); details: read-out: % Inhibition (at 10mM)
SGK1, sequence (O00141 whole entry): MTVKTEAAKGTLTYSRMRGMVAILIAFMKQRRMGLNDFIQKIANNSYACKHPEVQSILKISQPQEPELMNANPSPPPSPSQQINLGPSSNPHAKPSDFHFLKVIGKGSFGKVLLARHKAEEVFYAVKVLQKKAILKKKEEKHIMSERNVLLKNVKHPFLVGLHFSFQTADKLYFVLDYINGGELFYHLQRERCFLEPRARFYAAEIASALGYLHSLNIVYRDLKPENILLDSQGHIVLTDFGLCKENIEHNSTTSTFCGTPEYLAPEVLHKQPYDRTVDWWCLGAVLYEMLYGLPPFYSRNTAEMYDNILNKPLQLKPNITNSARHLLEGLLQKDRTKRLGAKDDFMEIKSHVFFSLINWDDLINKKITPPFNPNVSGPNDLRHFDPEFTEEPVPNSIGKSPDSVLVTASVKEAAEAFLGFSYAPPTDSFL

Src_N1 = target: T13, Src_N1 (Homo sapiens, UniProt P12931); details: read-out: % Inhibition (at 10mM)
T13 construct: gene SRC; isoform N1

IKK_epsilon = target: T14, IKK_epsilon (Homo sapiens, UniProt Q14164); details: read-out: % Inhibition (at 10mM)
T14 construct: gene IKBKE

SRPK1 = SRPK1 (Homo sapiens, UniProt Q96SB4); details: read-out: % Inhibition (at 10mM)
SRPK1, sequence (Q96SB4 whole entry): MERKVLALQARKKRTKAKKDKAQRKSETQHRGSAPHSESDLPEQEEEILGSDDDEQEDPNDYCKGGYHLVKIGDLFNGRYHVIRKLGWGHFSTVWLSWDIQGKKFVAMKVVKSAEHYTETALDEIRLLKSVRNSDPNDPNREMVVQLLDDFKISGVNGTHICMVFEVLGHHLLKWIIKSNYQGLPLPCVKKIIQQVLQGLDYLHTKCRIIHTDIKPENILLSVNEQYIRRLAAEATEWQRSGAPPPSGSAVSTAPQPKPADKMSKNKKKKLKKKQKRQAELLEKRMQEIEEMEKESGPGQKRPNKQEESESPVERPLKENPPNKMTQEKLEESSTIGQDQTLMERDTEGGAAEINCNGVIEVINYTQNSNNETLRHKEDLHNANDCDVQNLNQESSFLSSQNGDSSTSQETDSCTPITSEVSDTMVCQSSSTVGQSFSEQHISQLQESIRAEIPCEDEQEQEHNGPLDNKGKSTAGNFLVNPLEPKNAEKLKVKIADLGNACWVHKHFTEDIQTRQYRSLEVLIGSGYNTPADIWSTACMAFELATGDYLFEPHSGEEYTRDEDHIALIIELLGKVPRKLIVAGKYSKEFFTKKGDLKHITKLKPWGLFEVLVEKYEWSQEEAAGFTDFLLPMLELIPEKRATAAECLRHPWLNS

CamKII_delta = target: T15, CamKII_delta (Homo sapiens, UniProt Q13557); details: read-out: % Inhibition (at 10mM)
T15 construct: gene CAMK2D

DYRK4 = DYRK4 (Homo sapiens, UniProt Q9NR20); details: read-out: % Inhibition (at 10mM)
IRAK4 = IRAK4 (Homo sapiens, UniProt Q9NWZ3); details: read-out: % Inhibition (at 10mM)
IRAK4, sequence (Q9NWZ3 whole entry): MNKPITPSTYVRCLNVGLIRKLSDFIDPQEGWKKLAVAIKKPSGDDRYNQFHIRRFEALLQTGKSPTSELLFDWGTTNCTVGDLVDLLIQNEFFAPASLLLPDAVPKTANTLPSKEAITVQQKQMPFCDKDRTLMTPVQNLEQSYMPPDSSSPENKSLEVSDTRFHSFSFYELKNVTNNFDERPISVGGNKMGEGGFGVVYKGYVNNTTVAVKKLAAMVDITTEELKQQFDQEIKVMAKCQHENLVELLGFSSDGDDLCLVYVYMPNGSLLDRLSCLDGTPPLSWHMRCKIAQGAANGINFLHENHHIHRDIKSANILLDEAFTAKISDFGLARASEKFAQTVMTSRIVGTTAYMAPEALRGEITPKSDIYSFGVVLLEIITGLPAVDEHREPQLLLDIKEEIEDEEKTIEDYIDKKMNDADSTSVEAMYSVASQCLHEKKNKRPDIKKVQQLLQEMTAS

eEF-2K = target: T16, eEF-2K (Homo sapiens, UniProt O00418); details: read-out: % Inhibition (at 10mM)
T16 construct: gene EEF2K

ERK2 = target: T17, ERK2 (Homo sapiens, UniProt P28482); details: read-out: % Inhibition (at 10mM)
T17 construct: gene MAPK1

NIM1 = target: T18, NIM1 (Homo sapiens, UniProt Q8IY84); details: read-out: % Inhibition (at 10mM)
T18 construct: gene NIM1K

PAK1 = PAK1 (Homo sapiens, UniProt Q13153); details: read-out: % Inhibition (at 10mM)
PLK1 = PLK1 (Homo sapiens, UniProt P53350); details: read-out: % Inhibition (at 10mM)
PLK1, sequence (P53350 whole entry): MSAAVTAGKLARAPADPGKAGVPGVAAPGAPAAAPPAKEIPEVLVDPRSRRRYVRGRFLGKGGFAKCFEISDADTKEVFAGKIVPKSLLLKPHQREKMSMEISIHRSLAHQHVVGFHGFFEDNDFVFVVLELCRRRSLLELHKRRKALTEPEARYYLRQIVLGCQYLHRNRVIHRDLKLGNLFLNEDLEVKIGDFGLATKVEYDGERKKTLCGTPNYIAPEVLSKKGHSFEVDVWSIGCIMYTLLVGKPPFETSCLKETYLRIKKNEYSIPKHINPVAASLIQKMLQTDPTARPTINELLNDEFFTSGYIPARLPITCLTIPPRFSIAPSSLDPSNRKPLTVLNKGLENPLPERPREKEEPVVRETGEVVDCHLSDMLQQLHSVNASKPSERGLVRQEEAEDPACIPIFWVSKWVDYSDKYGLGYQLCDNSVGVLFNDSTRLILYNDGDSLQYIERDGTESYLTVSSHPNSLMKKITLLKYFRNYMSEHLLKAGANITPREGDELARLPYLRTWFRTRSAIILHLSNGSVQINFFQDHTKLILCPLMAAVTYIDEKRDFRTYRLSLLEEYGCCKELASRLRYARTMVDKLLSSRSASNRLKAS

CLK1 = CLK1 (Homo sapiens, UniProt P49759); details: read-out: % Inhibition (at 10mM)
PKD3 = target: T19, PKD3 (Homo sapiens, UniProt O94806); details: read-out: % Inhibition (at 10mM)
T19 construct: gene PRKD3

FGFR1 = FGFR1 (Homo sapiens, UniProt P11362); details: read-out: % Inhibition (at 10mM)
FGFR1, sequence (P11362 whole entry): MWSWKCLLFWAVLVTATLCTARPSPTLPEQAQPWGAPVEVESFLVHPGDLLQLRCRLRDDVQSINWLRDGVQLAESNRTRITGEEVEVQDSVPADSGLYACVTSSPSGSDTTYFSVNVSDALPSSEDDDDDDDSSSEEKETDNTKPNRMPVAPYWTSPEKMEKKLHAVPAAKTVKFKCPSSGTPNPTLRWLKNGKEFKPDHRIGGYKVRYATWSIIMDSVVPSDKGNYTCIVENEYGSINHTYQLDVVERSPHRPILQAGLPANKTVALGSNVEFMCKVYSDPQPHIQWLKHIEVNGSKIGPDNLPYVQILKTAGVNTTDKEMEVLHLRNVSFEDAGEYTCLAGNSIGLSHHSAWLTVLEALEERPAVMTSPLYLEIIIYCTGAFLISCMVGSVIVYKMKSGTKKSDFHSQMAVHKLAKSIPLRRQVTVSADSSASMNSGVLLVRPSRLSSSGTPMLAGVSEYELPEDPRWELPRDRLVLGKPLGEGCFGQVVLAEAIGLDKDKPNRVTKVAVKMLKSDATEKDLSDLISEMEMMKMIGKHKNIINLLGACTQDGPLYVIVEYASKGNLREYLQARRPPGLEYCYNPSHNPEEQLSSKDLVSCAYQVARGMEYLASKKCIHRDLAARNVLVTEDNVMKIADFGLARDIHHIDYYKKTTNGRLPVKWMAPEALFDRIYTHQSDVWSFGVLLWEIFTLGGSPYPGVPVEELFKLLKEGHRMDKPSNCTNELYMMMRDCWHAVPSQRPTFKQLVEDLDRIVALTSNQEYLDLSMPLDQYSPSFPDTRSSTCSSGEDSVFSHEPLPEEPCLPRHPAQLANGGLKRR

PRKAA1 = PRKAA1 (Homo sapiens, UniProt Q13131); details: read-out: % Inhibition (at 10mM)
CSK = CSK (Homo sapiens, UniProt P41240); details: read-out: % Inhibition (at 10mM)

inhibition (PLK3): -8.5%
inhibition (PRKAA1_B2_G3): 0.5%
inhibition (Abl): 9%
inhibition (Hyl): -2.5%
inhibition at 10 µM (mTOR): 9.5%
inhibition (BTK): 36%
inhibition (PAK6): 5.5%
inhibition (CaMKI_delta): 0%
inhibition (CHK1): 4.5%
inhibition (Brk): 65%
inhibition (PDGFR_beta): -4%
inhibition (Mink1): 7%
inhibition (Fyn): 53%
inhibition (HIPK3): 0%
inhibition (FGFR2): 2%
inhibition (FAK2): 4%
inhibition (RSK1): 14.5%
inhibition (p38_beta): 1%
inhibition (p38_gamma): 12.5%
inhibition (CDK2/cyclinA): 4.5%
inhibition (CK1_gamma3): 2.5%
inhibition (SGK1): 2%
inhibition (Src_N1): 23%
inhibition (IKK_epsilon): 5.5%
inhibition (SRPK1): 10.5%
inhibition (CamKII_delta): 6%
inhibition (DYRK4): 1.5%
inhibition (IRAK4): 6%
inhibition (eEF-2K): 7%
inhibition (ERK2): 12.5%
inhibition (NIM1): 8.5%
inhibition (PAK1): 16%
inhibition (PLK1): 8%
inhibition (CLK1): 10.5%
inhibition (PKD3): 31.5%
inhibition (FGFR1): 4%
inhibition (PRKAA1): 6%
inhibition (CSK): 56.5%
Compound: CC(C)(O)CC(=O)NCCn1ccc2ncnc(Nc3ccc(Oc4cccc(C(F)(F)F)c4)c(Cl)c3)c21 [TAK-285]
